In patent US20170334899A1, “AMINO-SUBSTITUTED ISOTHIAZOLES” (Bayer Pharma Aktiengesellschaft, priority 2014, published 2017):

How the values were obtained:
Format in all cases: cell-based
NCI-H460 = assay: Proliferation assay (crystal violet), NCI-H460; details: Homo sapiens, 96 h; NCI-H460 cells; 4 days incubation; crystal violet staining; read-out: IC50 inhibition of proliferation, NCI-H460
Outline: (§1)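 Four-day compound exposure (0.001-10 μM, 0.5% DMSO final) began 24 h after seeding 1000-5000 cells/well in medium with 10% fetal calf serum. Cell number read by crystal violet absorbance at 595 nm, scaled between day-zero plate and untreated control; 4-parameter fit gave IC50.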

HeLa = assay: Proliferation assay (crystal violet), HeLa; details: Homo sapiens, HeLa, 96 h, HeLa cells; 4 days incubation; crystal violet staining; read-out: IC50 inhibition of proliferation, HeLa
Outline: as §1

B16F10 = assay: Proliferation assay (crystal violet), B16F10; details: Mus musculus, B16-F10, 96 h; B16F10 cells; 4 days incubation; crystal violet staining; read-out: IC50 inhibition of proliferation, B16F10
Outline: as §1

[1] = tested on: human cervical tumor cell line HeLa (ATCC CCL-2); assay: SAC-Formation - Nocodazole-Induced Assay; details: Homo sapiens, HeLa, 24 h, HeLa cells, nocodazole 0.1 μg/ml together with test compound, decrease of mitotic cells (phospho-histone H3 Ser10)
Outline: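 Loss of phospho-histone H3 Ser10-positive cells, counted against Hoechst-stained nuclei by high-content imaging, marked mitotic breakthrough. Compounds (0.005–20 μM, 0.5% DMSO) were co-dosed with 0.1 μg/ml nocodazole onto HeLa cells for 24 h at 37 °C. Curves were fitted with a four-parameter Hill equation.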

DU145 = assay: Proliferation assay (crystal violet), DU145; details: Homo sapiens, DU-145, 96 h; DU145 cells; 4 days incubation; crystal violet staining; read-out: IC50 inhibition of proliferation, DU145
Outline: as §1

Caco-2 = assay: Proliferation assay (crystal violet), Caco-2; details: Homo sapiens, 96 h; Caco-2 cells; 4 days incubation; crystal violet staining; read-out: IC50 inhibition of proliferation, Caco2
Outline: as §1

HeLa-MaTu-ADR = assay: Proliferation assay (crystal violet), HeLa-MaTu-ADR; details: 96 h; HeLa-MaTu-ADR cells; 4 days incubation; crystal violet staining; read-out: IC50 inhibition of proliferation, HeLa-MaTu-ADR
Outline: as §1

| IC50 (NCI-H460) | IC50 (HeLa) | IC50 (B16F10) | IC50 [1] | IC50 (DU145) | IC50 (Caco-2) | IC50 (HeLa-MaTu-ADR) | SMILES |
| --- | --- | --- | --- | --- | --- | --- | --- |
|  | 490 nM |  | 74 nM |  |  |  | Cc1nsc(Nc2cnc(C(F)(F)F)cn2)c1C(=O)Nc1ccc(OCC2CCN(CC(F)(F)F)CC2(F)F)nc1 (stereo not drawn) [Example 392, N-(6-{[3,3-difluoro-1-(2,2,2-trifluoroethyl)piperidin-4-yl]methoxy}pyridin-3-yl)-3-methyl-5-{[5-(trifluoromethyl)pyrazin-2-yl]amino}-1,2-thiazole-4-carboxamide] |
|  | 430 nM |  | 14 nM |  |  |  | CCN1CCC(COc2ccc(NC(=O)c3c(C)nsc3Nc3cnc(C(F)(F)F)cn3)cn2)C(F)(F)C1 (stereo not drawn) [Example 393, N-{6-[(1-ethyl-3,3-difluoropiperidin-4-yl)methoxy]pyridin-3-yl}-3-methyl-5-{[5-(trifluoromethyl)pyrazin-2-yl]amino}-1,2-thiazole-4-carboxamide] |
|  | 480 nM |  | 35 nM |  |  |  | Cc1nsc(Nc2cnc(C(F)(F)F)cn2)c1C(=O)Nc1ccc(F)c(OC[C@@H]2CCCN(CCC(F)(F)F)C2)c1 [Example 395, N-(4-fluoro-3-{[(3R)-1-(3,3,3-trifluoropropyl)piperidin-3-yl]methoxy}phenyl)-3-methyl-5-{[5-(trifluoromethyl)pyrazin-2-yl]amino}-1,2-thiazole-4-carboxamide] |
|  | 460 nM |  | 14 nM |  |  |  | CCCCN1CCC(COc2ccc(NC(=O)c3c(C)nsc3Nc3cnc(C(F)(F)F)cn3)cn2)C(F)(F)C1 (stereo not drawn) [Example 396, N-{6-[(1-butyl-3,3-difluoropiperidin-4-yl)methoxy]pyridin-3-yl}-3-methyl-5-{[5-(trifluoromethyl)pyrazin-2-yl]amino}-1,2-thiazole-4-carboxamide] |
|  | 830 nM |  | 31 nM |  |  |  | Cc1nsc(Nc2cnc(C(F)(F)F)cn2)c1C(=O)Nc1ccc(F)c(OC[C@H]2CCN(CC(F)F)C2)c1 [Example 397, N-(3-{[(3S)-1-(2,2-difluoroethyl)pyrrolidin-3-yl]methoxy}-4-fluorophenyl)-3-methyl-5-{[5-(trifluoromethyl)pyrazin-2-yl]amino}-1,2-thiazole-4-carboxamide] |
|  | 490 nM |  | 28 nM |  |  |  | Cc1nsc(Nc2cnc(C(F)(F)F)cn2)c1C(=O)Nc1ccc(F)c(OC[C@H]2CCN(CC(F)(F)F)C2)c1 [Example 398, N-(4-fluoro-3-{[(3S)-1-(2,2,2-trifluoroethyl)pyrrolidin-3-yl]methoxy}phenyl)-3-methyl-5-{[5-(trifluoromethyl)pyrazin-2-yl]amino}-1,2-thiazole-4-carboxamide] |
|  | 650 nM |  | 29 nM |  |  |  | Cc1nsc(Nc2cnc(C(F)(F)F)cn2)c1C(=O)Nc1ccc(F)c(OC[C@H]2CCN(CCC(F)(F)F)C2)c1 [Example 399, N-(4-fluoro-3-{[(3S)-1-(3,3,3-trifluoropropyl)pyrrolidin-3-yl]methoxy}phenyl)-3-methyl-5-{[5-(trifluoromethyl)pyrazin-2-yl]amino}-1,2-thiazole-4-carboxamide] |

Second part, the molecule before the results:

| SMILES | IC50 (NCI-H460) | IC50 (HeLa) | IC50 (B16F10) | IC50 [1] | IC50 (DU145) | IC50 (Caco-2) | IC50 (HeLa-MaTu-ADR) |
| --- | --- | --- | --- | --- | --- | --- | --- |
| Cc1nsc(Nc2ccc(C#N)cn2)c1C(=O)Nc1ccc(OC2CCN(CC(F)(F)F)CC2)nc1 [Example 30, 5-[(5-Cyanopyridin-2-yl)amino]-3-methyl-N-(6-{[1-(2,2,2-trifluoroethyl)piperidin-4-yl]oxy}pyridin-3-yl)-1,2-thiazole-4-carboxamide] | 310 nM | 340 nM | 390 nM | 620 nM | 640 nM | 350 nM | 230 nM |
| Cc1nsc(Nc2cnc3ccccc3n2)c1C(=O)Nc1ccc(OC2CCCN(C(=O)OC(C)(C)C)C2)nc1 (stereo not drawn) [Example 31, tert-Butyl 3-{[5-({[3-methyl-5-(quinoxalin-2-ylamino)-1,2-thiazol-4-yl]carbonyl}-amino)pyridin-2-yl]oxy}piperidine-1-carboxylate] | 730 nM | 1200 nM | 950 nM | 220 nM | 3000 nM | 1100 nM | 880 nM |
| Cc1nsc(Nc2cnc(C(F)(F)F)cn2)c1C(=O)Nc1ccc(O[C@H]2CCN(CCC(F)(F)F)C2)nc1 [Example 384, 3-methyl-5-{[5-(trifluoromethyl)pyrazin-2-yl]amino}-N-(6-{[(3S)-1-(3,3,3-trifluoropropyl)pyrrolidin-3-yl]oxy}pyridin-3-yl)-1,2-thiazole-4-carboxamide] |  | 340 nM |  | 62 nM |  |  |  |
| Cc1nsc(Nc2cnc(C(F)(F)F)cn2)c1C(=O)Nc1ccc(O[C@@H]2CCCN(CC(F)F)C2)nc1 [Example 385, N-(6-{[(3R)-1-(2,2-difluoroethyl)piperidin-3-yl]oxy}pyridin-3-yl)-3-methyl-5-{[5-(trifluoromethyl)pyrazin-2-yl]amino}-1,2-thiazole-4-carboxamide] |  | 350 nM |  | 180 nM |  |  |  |
| Cc1nsc(Nc2cnc(C(F)(F)F)cn2)c1C(=O)Nc1ccc(O[C@@H]2CCCN(CC(F)(F)F)C2)nc1 [Example 386, 3-methyl-N-(6-{[(3R)-1-(2,2,2-trifluoroethyl)piperidin-3-yl]oxy}pyridin-3-yl)-5-{[5-(trifluoromethyl)pyrazin-2-yl]amino}-1,2-thiazole-4-carboxamide] |  | 290 nM |  | 41 nM |  |  |  |
| Cc1nsc(Nc2cnc(C(F)(F)F)cn2)c1C(=O)Nc1ccc(O[C@@H]2CCCN(CCC(F)(F)F)C2)nc1 [Example 387, 3-methyl-5-{[5-(trifluoromethyl)pyrazin-2-yl]amino}-N-(6-{[(3R)-1-(3,3,3-trifluoropropyl)piperidin-3-yl]oxy}pyridin-3-yl)-1,2-thiazole-4-carboxamide] |  | 400 nM |  | 70 nM |  |  |  |
| Cc1nsc(Nc2cnc(C(F)(F)F)cn2)c1C(=O)Nc1ccc(O[C@H]2CCCN(CC(F)F)C2)nc1 [Example 388, N-(6-{[(3S)-1-(2,2-difluoroethyl)piperidin-3-yl]oxy}pyridin-3-yl)-3-methyl-5-{[5-(trifluoromethyl)pyrazin-2-yl]amino}-1,2-thiazole-4-carboxamide] |  | 370 nM |  | 37 nM |  |  |  |
| Cc1nsc(Nc2cnc(C(F)(F)F)cn2)c1C(=O)Nc1ccc(O[C@H]2CCCN(CC(F)(F)F)C2)nc1 [Example 389, 3-methyl-N-(6-{[(3S)-1-(2,2,2-trifluoroethyl)piperidin-3-yl]oxy}pyridin-3-yl)-5-{[5-(trifluoromethyl)pyrazin-2-yl]amino}-1,2-thiazole-4-carboxamide] |  | 310 nM |  | 93 nM |  |  |  |
| Cc1nsc(Nc2cnc(C(F)(F)F)cn2)c1C(=O)Nc1ccc(O[C@H]2CCCN(CCC(F)(F)F)C2)nc1 [Example 390, 3-methyl-5-{[5-(trifluoromethyl)pyrazin-2-yl]amino}-N-(6-{[(3S)-1-(3,3,3-trifluoropropyl)piperidin-3-yl]oxy}pyridin-3-yl)-1,2-thiazole-4-carboxamide] |  | 320 nM |  | 110 nM |  |  |  |
